Results on 20 compounds are retold here after ChEMBL document CHEMBL1123438, “Queuine analogues. Their synthesis and inhibition of growth of mouse L5178Y cells in vitro” (1986).

For assay [1], the target named is T1, Queuine tRNA-ribosyltransferase catalytic subunit 1 (Rattus norvegicus) (UniProt Q4QR99).
T1 sequence (whole entry): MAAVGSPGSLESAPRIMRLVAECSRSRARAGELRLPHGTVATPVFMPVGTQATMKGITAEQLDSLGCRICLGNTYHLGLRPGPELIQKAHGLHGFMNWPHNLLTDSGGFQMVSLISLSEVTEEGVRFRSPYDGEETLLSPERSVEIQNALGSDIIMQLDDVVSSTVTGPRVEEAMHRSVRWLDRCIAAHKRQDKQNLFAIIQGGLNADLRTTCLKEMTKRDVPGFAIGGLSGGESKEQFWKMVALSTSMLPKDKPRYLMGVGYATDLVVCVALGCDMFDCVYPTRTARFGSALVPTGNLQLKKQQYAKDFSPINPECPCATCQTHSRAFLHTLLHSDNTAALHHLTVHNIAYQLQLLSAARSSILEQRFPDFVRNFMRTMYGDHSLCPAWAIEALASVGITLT
Nature of the assay: Ability to act as substrate of rat liver tRNA-Guanine Transglycosylase.

The test system of assay [2] is L5178Y. Nature of the assay: Inhibition of L5178Y cell growth at 10 ug/mL.
The test system of assay [3] is L5178Y. Put plainly: Inhibition of L5178Y cell growth at 100 ug/mL.
The subject of assay [4] is L5178Y. Put plainly: Compound was tested for inhibition of growth of L5178Y cells at concentration of 1 ug/mL. It counts as functional. The note with it: Mus musculus.

Consider `CCCNCc1c[nH]c2nc(N)nc(O)c12`, for which the Incorporation in assay [1] is 94%. Also, the Inhibition in the assay with L5178Y [2] is on record as below 10%; with L5178Y [3], 43%.

For the compound `NCc1c[nH]c2nc(N)nc(S)c12`, the Incorporation in assay [1] turned out to be 50%. In the assay on L5178Y [4], this compound displayed an inhibition at 1 µg/mL below 10%. The values for the Inhibition in the assay with L5178Y [2] and in the assay on L5178Y [3] were 36% and 77%, respectively.

With `Nc1nc(O)c2c(CN3CCCCC3)c[nH]c2n1`, the Incorporation in assay [1] was found to be 65%. Besides, the Inhibition in the assay with L5178Y [2] is listed as below 10%; in the assay on L5178Y [3] it was 36%.

In assay [1], `CC1(C)OC2C(NCc3c[nH]c4nc(N)nc(O)c34)C=C[C@H]2O1` (stereo partly specified) gave an Incorporation of 100%. For the same compound, the Inhibition was below 10% in the assay with L5178Y [2] and 21% in the assay on L5178Y [3].

Regarding `Nc1nc(O)c2c(CNCC(O)CO)c[nH]c2n1` (stereo unspecified), in assay [1], the Incorporation worked out at 88%. For the same compound, the results for the Inhibition with L5178Y [2] and in the assay on L5178Y [3] were below 10% and 31%, respectively.

As to `Nc1nc(O)c2c(CNCCOCCO)c[nH]c2n1`, the Incorporation in assay [1] amounted to 98%. Moreover, the Inhibition with L5178Y [2] is on record as below 10%; in the assay with L5178Y [3] it was 9%.

For `Nc1nc(O)c2c(CNc3ccccc3O)c[nH]c2n1`, the Incorporation in assay [1] worked out at 76%. Besides, 1 µg/mL produced 25% inhibition in the assay on L5178Y [4]. Besides, the Inhibition with L5178Y [2] was 53%; in the assay on L5178Y [3] it was 90%.

In assay [1], `Nc1nc(O)c2c(CNC3CCCC3)c[nH]c2n1` came in with an Incorporation of 80%. Besides, the Inhibition with L5178Y [2] is 17%; in the assay on L5178Y [3] it was 74%.

`Nc1nc(O)c2c(CNC3C=C[C@@H](O)[C@H]3O)c[nH]c2n1` (stereo partly specified) gave an Incorporation in assay [1] of 100%. For the same compound, the Inhibition is reported as below 10% in the assay on L5178Y [2] and 20% with L5178Y [3].

For `Nc1nc(O)c2c(CNc3cccc(O)c3)c[nH]c2n1`, the Incorporation in assay [1] came to 33%. For the same compound, at 1 µg/mL the inhibition in the assay with L5178Y [4] was 12%. Besides, the Inhibition with L5178Y [2] came to 65%; in the assay with L5178Y [3], 79%.

`Nc1nc(O)c2c(CNCc3ccc(I)cc3)c[nH]c2n1`: the Incorporation in assay [1] came out at 98%. Also, the Inhibition in the assay on L5178Y [2] came out at 19%; with L5178Y [3], 77%.

On to `Nc1nc(S)c2c(CNC3C=C[C@H](O)C3O)c[nH]c2n1` (stereo partly specified), for which the Incorporation in assay [1] worked out at 78%. In the assay with L5178Y [4], at 1 µg/mL the inhibition was 12%. The figures for the Inhibition in the assay with L5178Y [2] and in the assay with L5178Y [3] were 54% and 88%, respectively.

In assay [1], `CC(C)C(=O)NCc1c[nH]c2nc(N)nc(O)c12` displayed an Incorporation of 36%. Besides, the Inhibition amounted to 16% in the assay on L5178Y [2] and 87% with L5178Y [3].

With `Nc1nc(O)c2c(CNC3C=C[C@@H](O)C3O)c[nH]c2n1` (stereo partly specified), the Incorporation in assay [1] was 120%. Further, the Inhibition with L5178Y [2] is reported as below 10%; in the assay on L5178Y [3], 23%.

In assay [1], `CC1(C)OC2C(NCc3c[nH]c4nc(N)nc(S)c34)C=C[C@@H]2O1` (stereo partly specified) yielded an Incorporation of 123%. This compound also had an inhibition at 1 µg/mL with L5178Y [4] of 46%. Moreover, the Inhibition is recorded as 87% with L5178Y [2] and 94% in the assay with L5178Y [3].

Consider `Nc1nc(O)c2c(n1)N=CC2CNCC(=O)O` (stereo unspecified), for which, in assay [1], the Incorporation came to 48%. In addition, the results for the Inhibition in the assay on L5178Y [2] and in the assay on L5178Y [3] were below 10% and 20%, respectively.

Take `Nc1nc(O)c2c(CNC(=O)CI)c[nH]c2n1`: the Incorporation in assay [1] was found to be 0%. Further, in the assay with L5178Y [4], the inhibition at 1 µg/mL turned out to be 49%. Further, the values for the Inhibition in the assay on L5178Y [2] and with L5178Y [3] were 87% and 89%, respectively.

As to `Nc1nc(O)c2c(CNC3C=C[C@H](O)[C@@H]3O)c[nH]c2n1` (stereo partly specified), the Incorporation in assay [1] turned out to be 70%. Moreover, the results for the Inhibition in the assay with L5178Y [2] and with L5178Y [3] were below 10% and 53%, respectively.

On to `CC1(C)OC2C(NCc3c[nH]c4nc(N)nc(O)c34)C=C[C@@H]2O1` (stereo partly specified), for which the Incorporation in assay [1] was found to be 55%. In addition, the Inhibition in the assay on L5178Y [2] is on record as below 10%; in the assay with L5178Y [3], 34%.

`N/C(=N/Cc1c[nH]c2nc(N)nc(O)c12)c1cc(I)c(O)c(I)c1`: the Incorporation in assay [1] was 48%. For the same compound, the Inhibition with L5178Y [2] worked out at 31%; in the assay on L5178Y [3], 89%.

Usually Inhibition stands for the share of the control response that was lost under treatment. High values mean a strong effect, low ones a weak effect. As a reminder, the inhibition is how much of the control response was suppressed. A higher inhibition goes with a strong effect.
